Reference: patent publication US7838271B2, “Microbiological method for producing amides” (priority 2001, dated 2010)
Read-outs that look alike come from different tables or passages of the source. Marks after values point to notes of the source that are not given here.

Key:
[1] = tested on: Rhodococcus sp. FZ4 nitrile hydratase; type: cell-based
Description: (§1) Nitrile hydratase activity was determined by incubating a reaction mixture comprising 3-cyanopyridine (1.0 M; 1.0 ml), potassium phosphate buffer (0.1 M, pH 7.0; 0.5 ml) and cell suspension (0.5 ml) with stirring at 20° C. for 5 min. The reaction was stopped by adding HCI (5 M; 0.1 ml). After filtration (0.2 μm filter) of the reaction mixture, the amount of nicotinamide produced was determined by means of HPLC (Waters Spherisorb 5 μ ODS2 (4.6×150 mm); KH2P04/H3P04 (10 mM; pH 2.8)/acetonitrile=9:1 (v/v); 1 ml/min; 230 nm). The total activity is expressed as μmol of nicotinamide produced/ (min×ml) and the specific activity is expressed as μmol of nicotinamide produced/(min×ml×OD610 nm).
(§2) The preculture medium of Table 2 was inoculated with strain Rhodococcus sp. FZ4 (DSM 13597), followed by incubation with shaking at 28° C. for 1 to 2 days. The preculture was transferred into the culture medium of Table 5, which contained different inducers, and cultured with shaking at 28° C. for 3 days. Nitrile hydratase activity was determined according to Example 1. Rhodococcus sp.

Rhodococcus sp. FZ4 [2] = type: cell-based
Description: as §2

[3] = tested on: Rhodococcus sp. FZ4 nitrile hydratase; type: cell-based; remark: listed apart in the source
Description: as §1
(§3) A cell suspension was incubated at different nicotinamide concentrations in the range from 0 to 20% (w/v) at 20° C. for 24 h. The cells were removed, washed and resuspended in potassium phosphate buffer (0.1 M; pH 7.0).
(§4) The influence of nicotinamide concentration on the nitrile hydratase activities of Rhodococcus sp. FZ4, Rhodococcus sp. GF270, Amycolatopsis sp. NA40 and Rhodococcus rhodochrous J1 was determined according to Example 9 using the respective microorganism and the nicotinamide concentration indicated in Table 11.

[4] = tested on: Rhodococcus sp. GF270 nitrile hydratase; type: cell-based
Description: as §1, §3, §4

[5] = tested on: Rhodococcus sp. FZ4 nitrile hydratase; assay: Influence of cofactors on nitrile hydratase activity during cultivation; type: cell-based; conditions: basal medium with cofactor 0.004 g/l, 28° C., 2 to 3 days; substrate 3-cyanopyridine
Description: as §1
(§5) The preculture medium of Table 2 was inoculated with strain Rhodococcus sp. FZ4 (DSM 13597), followed by incubation with shaking at 28° C. for 1 to 2 days. The preculture was transferred into the basal medium of Table 3, which contains either CoCl 2 or FeSO4, and cultured with shaking at 28° C. for 2 to 3 days. Nitrile hydratase activity was determined according to Example 1.

Rhodococcus sp. FZ4 [6] = assay: Influence of cofactors on growth during cultivation; type: cell-based; conditions: basal medium with cofactor 0.004 g/l, 28° C., 2 to 3 days
Description: as §5, with “1. A nitrile hydratase activity was present only when culturing Rhodococcus sp. FZ4 in the presence of cobalt.” for “1.”

[7] = tested on: purified Rhodococcus sp. FZ4 nitrile hydratase; assay: Influence of metal ions on the activity of purified nitrile hydratase; type: biochemical; conditions: metal ions 1.0 mM; no addition = 100
Description: A solution comprising nitrile hydratase solution (0.695 μmol/min; 0.025 ml), potassium phosphate buffer (0.1 M; pH 7.0; 0.475 ml), distilled water (0.150 ml) and different potential inhibitors (0.100 ml) was incubated at 20° C. for 5 min. This was followed by the addition of 3-cyanopyridine (1.0 M; 0.250 ml). The concentration of the inhibitors in the reaction mixture was 1.0 mM. The reaction mixture was incubated at 20° C. for 10 min. The reaction was stopped by adding MeOH. The amount of nicotinamide produced was determined by means of HPLC according to Example 1.
The influence of metal ions on the activity of purified nitrile hydratase was carried out according to Example 24, but with the addition of metal ions instead of potential inhibitors. […]

[8] = tested on: Rhodococcus sp. FZ4 nitrile hydratase; assay: Substrate specificity of nitrile hydratase activity, resting cells; type: cell-based
Description: as §1
Rhodococcus sp. FZ4 nitrile hydratase activity with respect to different substrates was determined according to Example 1, except that the appropriate substrate was used instead of 3-cyanopyridine and that the HPLC conditions were modified according to the substrate used.

[9] = tested on: Rhodococcus rhodochrous J1 nitrile hydratase; assay: Substrate specificity of nitrile hydratase activity (comparison strain); type: cell-based; conditions: compound as substrate; 3-cyanopyridine = 100
[10] = tested on: Amycolatopsis sp. NA40 nitrile hydratase; assay: KM value for 3-cyanopyridine, resting cells; type: cell-based; conditions: 30° C., pH 7.0
Description: The reaction was stopped by adding HC1(2 M; 0.1 ml).
FZ4, Rhodococcus sp. GF270 (DSM 12211; WO 99/05306), Amycolatopsis sp. NA40 (DSM 11617; WO 99/05306) and Rhodococcus rhodochrous J1 were determined according to Example 11 using the respective microorganism.

[11] = tested on: Amycolatopsis sp. NA40 nitrile hydratase; type: cell-based; conditions: incubation for 15 min
Description: as §1
(§6) […] The cells were removed, washed and resuspended in potassium phosphate buffer (0.1 M; pH 7.0).
as §4, with “of 3-cyanopyridine” for “of nicotinamide”, “the 3-cyanopyridine concentrations” for “the nicotinamide concentration”, “Table 10.” for “Table 11.”

[12] = tested on: Rhodococcus sp. FZ4 nitrile hydratase; type: cell-based; conditions: for Relative activity: incubation for 60 min
Description: as §1, §6
as §4, with “of 3-cyanopyridine” for “of nicotinamide”, “the 3-cyanopyridine concentrations” for “the nicotinamide concentration”, “Table 10.” for “Table 11.”

[13] = tested on: Rhodococcus sp. GF270 nitrile hydratase; type: cell-based; conditions: incubation for 60 min
Description: as §1
A cell suspension was incubated at different 3-cyano-30 pyridine concentrations in the range from 0 to 10% (w/v) at 20° C. for 60 min. The cells were removed, washed and resuspended in potassium phosphate buffer (0.1 M; pH 7.0).
as §4, with “of 3-cyanopyridine” for “of nicotinamide”, “the 3-cyanopyridine concentrations” for “the nicotinamide concentration”, “Table 10.” for “Table 11.”

[14] = tested on: Rhodococcus rhodochrous J1 nitrile hydratase; type: cell-based; conditions: incubation for 15 min
Description: as §1, with “Nitrile hydratase activity was determined by incubating a reaction mixture comprising 3-cyanopyridine (1.0 M; 1.0 ml), potassium phosphate buffer (0.1 M, pH 7.0; 0.5 ml) and cell suspension (0.5 ml) with stirring at 20° C. for 5 min.” left out
as §6
as §4, with “of 3-cyanopyridine” for “of nicotinamide”, “the 3-cyanopyridine concentrations” for “the nicotinamide concentration”, “Table 10.” for “Table 11.”

[15] = tested on: purified Rhodococcus sp. FZ4 nitrile hydratase; assay: Substrate specificity of purified nitrile hydratase; type: biochemical
Description: A reaction mixture comprising nitrile hydratase solution (0.695 μmol/min; 0.025 ml), different substrates (0.500 ml) and potassium phosphate buffer (0.1 M; pH 7.0; 0.475 ml) was incubated at 20° C. for 5 to 10 min. The concentrations of the substrates used were in the range from 0.015 to 0.250 M. The reaction was stopped by adding MeOH. The amount of amide produced was determined by means of HPLC.

[16] = tested on: purified Rhodococcus sp. FZ4 nitrile hydratase; assay: KM value for 3-cyanopyridine, purified nitrile hydratase; type: biochemical; conditions: purified enzyme, potassium phosphate buffer pH 7.0, 20° C.
Description: The reaction mixture was incubated at 20° C. for 10 min. The reaction was stopped by adding methanol and the amount of nicotinamide produced was determined by means of HPLC according to Example 1.

[17] = water; cited from earlier work
[18] = tested on: Rhodococcus sp. FZ4 nitrile hydratase; type: cell-based; remark: listed apart in the source
Description: A reaction mixture comprising acetonitrile (0.2-19.0 M; 1.0-1.6 ml), aqueous NaCl solution (0.85% (w/v); 0.6-0.0 ml), potassium phosphate buffer (0.1 M; pH 7.0; 0.3 ml) and cell suspension (0.1 ml) was incubated with shaking at 20° C. for 10 min. The total reaction volume was 2.0 ml. The reaction was stopped by adding MeOH. The reaction mixture was centrifuged (12 000 rpm, 5 min) and the amount of acetamide produced was determined by means of HPLC according to Example 14.

[19] = tested on: Rhodococcus sp. FZ4 nitrile hydratase; type: cell-based; conditions: pH 7
Description: The reaction was stopped by adding MeOH. The reaction mixture was centrifuged (12 000 rpm, 5 min) and the amount of acetamide produced was determined by means of HPLC according to Example 14.

[20] = tested on: purified Rhodococcus sp. FZ4 nitrile hydratase; conditions: read-out: KM value for acetonitrile; pH 7
Description: The reaction mixture was incubated at 20° C. for 10 min. The reaction was stopped by adding methanol and the amount of acetamide produced was determined by means of HPLC according to Example 14.

[21] = culture medium with inducer 0.2% (w/v), 28° C., 3 days, substrate 3-cyanopyridine
[22] = culture medium with inducer 0.2% (w/v), 28° C., 3 days

For `NC(=O)c1cccnc1` [Nicotinamide], the Specific activity [1] was 1.39 μmol/(min × ml × OD610 nm), the Total activity [1] was 4.94 µmol/min/mL and the Growth (Rhodococcus sp. FZ4 [2]) was 3.55 OD610 nm. The Relative activity [3] was 100%, the “nitrile hydratase activity after incubation with nicotinamide” value [3] was “corresponded approximately to the original nitrile hydratase activity” and the Relative activity [4] was 100%.
In the case of `[Cl-].[Cl-].[Co+2]` [CoC12], the Specific activity [5] was 13.1 μmol/(min × ml × OD610 nm), the Total activity [5] was 38.1 µmol/min/mL and the Growth (Rhodococcus sp. FZ4 [6]) was 2.79 OD610 nm. It also gave a Relative activity [7] of 110%.
With `O=S(=O)([O-])[O-].[Fe+2]` [FeSO4] the Specific activity [5] was 0.346 μmol/(min × ml × OD610 nm), the Total activity [5] was 0.989 µmol/min/mL and the Growth (Rhodococcus sp. FZ4 [6]) was 2.86 OD610 nm. For the same compound, the Relative activity [7] was 113%.
In the case of `N#Cc1cccnc1` [3-Cyanopyridine], the Specific activity [1, 21] was 2.21 μmol/(min × ml × OD610 nm), the Total activity [1, 21] was 12.3 µmol/min/mL and the Growth (Rhodococcus sp. FZ4 [2]; [22]) was 5.54 OD610 nm. The Relative activity ([8]; compound as substrate, 3-cyanopyridine = 100, resting cells, 20° C.) was 100%, the Relative activity [9] was 100% and the Km [10] was 41.7 mM. The Relative activity ([11]; 3-cyanopyridine 2.5% (w/v)) was 74^b %, the Relative activity ([11]; 3-cyanopyridine 5.0% (w/v)) was 56^b % and the Relative activity ([11]; 3-cyanopyridine 7.5% (w/v)) was 47^b %. The Relative activity ([11]; 3-cyanopyridine 10.0% (w/v)) was 16^b %, the “nitrile hydratase activity after incubation with 3-cyanopyridine” value ([12]; 0 to 20% (w/v) for 60 minutes, 20° C.) was “corresponded approximately to the original nitrile hydratase activity” and the Relative activity ([12]; 3-cyanopyridine 2.5% (w/v)) was 100^a %. For the same compound, the Relative activity ([12]; 3-cyanopyridine 5.0% (w/v)) was 100^a %, the Relative activity ([12]; 3-cyanopyridine 7.5% (w/v)) was 100^a % and the Relative activity ([12]; 3-cyanopyridine 10.0% (w/v)) was 100^a %. The Relative activity ([13]; 3-cyanopyridine 2.5% (w/v)) was 100^a %, the Relative activity ([13]; 3-cyanopyridine 5.0% (w/v)) was 100^a % and the Relative activity ([13]; 3-cyanopyridine 7.5% (w/v)) was 100^a %. For the same compound, the Relative activity ([13]; 3-cyanopyridine 10.0% (w/v)) was 100^a %, the Relative activity ([14]; 3-cyanopyridine 5.0% (w/v)) was 86^b % and the Relative activity ([14]; 3-cyanopyridine 10.0% (w/v)) was 63^b %. For the same compound, the Total activity ([15]; substrate concentration 0.25 M, corresponds to 100%) was “^aTotal activity: 4,164 μmol/(min × .ml)”, the Relative activity ([15]; substrate concentration 0.25 M, reference = 100) was 100^a % and the Km [16] was 80.5 mM.
For `CC(N)=O` [Acetamide], the Specific activity [1, 21] was 4.98 μmol/(min × ml × OD610 nm), the Total activity [1, 21] was 21.6 µmol/min/mL and the Growth (Rhodococcus sp. FZ4 [2]; [22]) was 4.37 OD610 nm. For the same compound, the “concentration of an acetamide solution saturated at 30° C.” value [17] was 220-230 g of acetamide in 100 ml of water.
With `CC#N` [Acetonitrile] the Specific activity [1] was 4.13 μmol/(min × ml × OD610 nm), the Total activity [1] was 18.4 µmol/min/mL and the Growth (Rhodococcus sp. FZ4 [2]) was 4.46 OD610 nm. For the same compound, the Relative activity [8] was 646%, the “nitrile hydratase activity as a function of acetonitrile concentration” value [18] was “nearly constant” and the “nitrile hydratase activity after incubation with acetonitrile” value [19] was “nearly constant”. The Relative activity [15] was 1 008% and the Km [20] was 2.84 mM.
